Literature values as cited in US4756910A, “Adriamycin-entrapping liposome preparation” (priority 1985, dated 1988).

Structure (SMILES): COc1cccc2c1C(=O)c1c(O)c3c(c(O)c1C2=O)C[C@@](O)(C(=O)CO)C[C@@H]3O[C@H]1C[C@H](N)[C@H](O)[C@H](C)O1 [Free adriamycin, Adriamycin]
- Cardiac toxicity (in words) (background statement): accumulative cardiac toxicity
- Disappearance from the blood (in words) (in vivo, iv): rapidly disappears from the blood after intravenous administration
